Assay results: PubChem BioAssay (NCI)
Values joined by “and” are separate entries in the source; they are usually repeats but may differ in a detail not shown here. Equal entries are not always repeated.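 These data come from cells grown in 96-well plates and exposed to compound for 48 hours at five concentrations. GI50: concentration for 50% inhibition of growth. TGI: total growth inhibition.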 Starred links: 1 amine or outer side, 2 acyl side, 3 side chain; linkers in the order of their positions; H or OH if unused. Positions of bridges follow the written chain, without caps; N, C: chain ends. Non-standard residues stand in square brackets, D forms with d. Residues, ends and D or L forms follow the SMILES beside them. Chains are numbered I, II in the order given. Actinocin(1to9) = Cc1c2oc3c(C)ccc(C(=O)[*:2])c3nc-2c(C(=O)[*:1])c(N)c1=O; NMeV = CN[CH](C(=O)O)C(C)C; Sar = CNCC(=O)O

Experiments:
Assay in all cases: NCI tumour cell line growth inhibition, 48 h
NCI-H460 lung = tested on: NCI-H460 lung
BT-549 breast = tested on: BT-549 breast
A498 renal = tested on: A498 renal
PC-3 prostate = tested on: PC-3 prostate
SK-MEL-28 melanoma = tested on: SK-MEL-28 melanoma
786-0 renal = tested on: 786-0 renal
DMS 114 small cell lung = tested on: DMS 114 small cell lung
DLD-1 colon = tested on: DLD-1 colon
DMS 273 small cell lung = tested on: DMS 273 small cell lung
KM20L2 colon = tested on: KM20L2 colon
SNB-78 CNS = tested on: SNB-78 CNS
M19-MEL melanoma = tested on: M19-MEL melanoma
HOP-18 NSCLC = tested on: HOP-18 NSCLC
LXFL 529 NSCLC = tested on: LXFL 529 NSCLC
XF 498 CNS = tested on: XF 498 CNS
P388 leukemia = tested on: P388 leukemia
P388/ADR leukemia = tested on: P388/ADR leukemia
SN12K1 renal = tested on: SN12K1 renal

| SMILES | TGI (NCI-H460 lung) [µM] | TGI (BT-549 breast) [µM] | TGI (A498 renal) [µM] | TGI (PC-3 prostate) | TGI (SK-MEL-28 melanoma) [µM] | TGI (786-0 renal) [µM] | further results |
| --- | --- | --- | --- | --- | --- | --- | --- |
| CC(=O)OC1CC[C@@]2(C)C(=CC[C@@H]3[C@@H]2CC[C@]2(C)Nc4nn(S(C)(=O)=O)cc4C[C@@H]32)C1 (stereo partly drawn) | 72.5 | 45 | > 100 | > 100 µM | > 100 | – | – |
| O=C(O[C@@H](/C=C/c1ccccc1)P1(=O)N(Cc2ccccc2)[C@H]2CCCC[C@@H]2N1Cc1ccccc1)c1ccccc1 | 5.26 | > 100 | 8.43 | 8.54 µM | > 100 | > 100 | – |
| CC(ON(C(c1ccccc1)C(C)C)C(C)(C)C)c1ccccc1 (stereo not drawn) | 39.1 | 28.7 | – | 94 µM | 47.5 | 30.7 | – |
| CCC(C)C1NC(=O)C(NC(=O)c2c3nc4c(C(=O)NC5C(=O)NC(C(C)CC)C(=O)N6CCCC6C(=O)N(C)CC(=O)N(C)C(C(C)C)C(=O)OC5C)ccc(C)c4oc-3c(C)c(=O)c2N)C(C)OC(=O)C(C(C)C)N(C)C(=O)CN(C)C(=O)C2CCCN2C1=O (stereo not drawn) (I: TIP[Sar][NMeV] / II: TIP[Sar][NMeV]; ester I:1-I:C, II:1-II:C; linker I:N-II:N via Actinocin(1to9); configuration not given here) | – | 0.58 | 0.0629 | 0.13 µM and 0.212 µM | 0.0152 | 10.4 | – |
| COc1cc2oc(=O)ccc2cc1C(=O)CC(C)C | > 100 | > 100 | > 100 | > 100 µM | > 100 | > 100 | – |
| N#CC12Cc3cc4c(cc3-c3cccc(c31)CCN2C(=O)c1ccccc1)OCO4 (stereo not drawn) | – | – | > 100 | – | > 100 | – | TGI (DMS 114 small cell lung): > 100 µM; TGI (DLD-1 colon): > 100 µM; TGI (DMS 273 small cell lung): > 100 µM; TGI (KM20L2 colon): > 100 µM; TGI (SNB-78 CNS): > 100 µM; TGI (M19-MEL melanoma): > 100 µM; TGI (HOP-18 NSCLC): > 100 µM; TGI (LXFL 529 NSCLC): > 100 µM; TGI (XF 498 CNS): > 100 µM |
| O=c1c2cc(I)ccc2nc(SCc2nncs2)n1Cc1ccccc1 | > 100 | > 100 | 65.1 | > 100 µM | > 100 | > 100 | – |
| Cc1coc2c1C[C@@]1(C)[C@H](CCC[C@@H]1C)[C@H]2O | > 100 | – | – | > 100 µM | > 100 | – | – |
| CC(O)(Cc1ccccc1C#N)Cc1ccccc1C#N | > 100 | > 100 | > 100 | > 100 µM | > 100 | > 100 | – |
| Cc1cc(C)n(CC(Cn2nc(C)cc2C)=C(/C(Cl)=C(/Cl)Nc2ccc([N+](=O)[O-])cc2)[N+](=O)[O-])n1 | 10.9 | 15.7 | 11.2 | 12.7 µM | 29 | 18.9 | – |
| Nc1c(C(=O)O)nnc2cc(Cl)c(Cl)cc12 | > 100 | > 100 | > 100 | > 100 µM | – | > 100 | – |
| Cn1cnc([N+](=O)[O-])c1Sc1nc(N)nc2c1ncn2C1OC(CO)C(O)C1O (stereo not drawn) | 28.1 | > 100 | – | > 100 µM | > 100 | > 100 | TGI (DMS 114 small cell lung): > 100 µM; TGI (DLD-1 colon): > 100 µM; TGI (DMS 273 small cell lung): > 100 µM; TGI (KM20L2 colon): 28.8 µM; TGI (SNB-78 CNS): > 100 µM; TGI (M19-MEL melanoma): > 100 µM; TGI (HOP-18 NSCLC): > 100 µM; TGI (LXFL 529 NSCLC): > 100 µM; TGI (XF 498 CNS): > 100 µM |
| CC(C)(C)OC(=O)NC(CCCCNC(=O)OCc1ccccc1)C(=O)NCCNc1ccc(NCCNC(=O)C(CCCCNC(=O)OCc2ccccc2)NC(=O)OC(C)(C)C)c2c1C(=O)c1ccccc1C2=O (stereo not drawn) | > 100 | > 100 | > 100 | > 100 µM | > 100 | > 100 | – |
| CC(C)(C)OC(=O)n1c2ccccc2c2c(=O)nc(N3CCCCC3)sc21 | > 100 | > 100 | > 100 | > 100 µM | > 100 | > 100 | – |
| CN(C)c1ccc(C=Nc2ccc(Oc3ccc(Cl)cc3)c(Cl)c2)cc1 | 42.1 | 44.1 | – | 36.2 µM | 48.6 | – | – |
| OCc1cn(C(c2ccccc2)(c2ccccc2)c2ccccc2)cn1 | > 100 | – | – | > 100 µM | > 100 | – | – |
| COc1ccc(C2NC(=S)Nc3c2c(=O)oc2c3ccc3ccccc32)cc1 (stereo not drawn) | > 100 | > 100 | > 100 | > 100 µM | > 100 | > 100 | – |
| COCCNCc1ccc(-c2cc3nccc(Oc4ccc(NC(=S)NC(=O)Cc5ccc(F)cc5)cc4F)c3s2)nc1 | – | – | 8.71 | – | – | – | GI50 (A498 renal): 2110 nM |
| CN(C)c1ccc(C=Nc2ccc(-c3nc4ccccc4[nH]3)cc2)cc1 | > 100 | 88.8 | > 100 | > 100 µM | > 100 | > 100 | – |
| Clc1ccccc1/C=c1\nc(-c2ccccc2)n2c1nc1ccccc12 | > 100 | 50 | > 100 | 27.9 µM | > 100 | > 100 | – |
| Cn1c(=O)[nH]c2nncnc2c1=O | 245 | – | 475 | – | > 625 | – | TGI (P388 leukemia): 148 µM; TGI (P388/ADR leukemia): > 625 µM; TGI (SN12K1 renal): > 625 µM; TGI (DMS 114 small cell lung): 345 µM; TGI (DLD-1 colon): > 625 µM; TGI (DMS 273 small cell lung): 106 µM; TGI (KM20L2 colon): > 306 µM; TGI (SNB-78 CNS): > 625 µM; TGI (M19-MEL melanoma): 115 µM; TGI (HOP-18 NSCLC): 61.1 µM; TGI (XF 498 CNS): 245 µM |
| O=c1[nH]c2nnc(COc3ccc(Cl)cc3Cl)n2nc1Cc1ccccc1 | > 100 | > 100 | 82 | > 100 µM | > 100 | 43.8 | – |
| O=C(CSc1nc2ccc([N+](=O)[O-])cc2s1)c1ccc2ccccc2c1 | > 100 | > 100 | > 100 | > 100 µM | > 100 | > 100 | – |
| C[N+]1(CCC(=O)c2ccco2)CC2CCC(CC2)C1 (stereo not drawn) | > 100 | > 100 | > 100 | > 100 µM | > 100 | > 100 | – |
| COc1ccc2nc3c(C(=O)NCCN(C)C)cccc3cc2c1 | 3.65 | – | 3.08 | – | 8.79 | – | TGI (P388 leukemia): 1.49 µM; TGI (P388/ADR leukemia): 3.05 µM; TGI (SN12K1 renal): 3.27 µM; TGI (DMS 114 small cell lung): 4.48 µM; TGI (DMS 273 small cell lung): 6.15 µM; TGI (KM20L2 colon): 4.36 µM; TGI (SNB-78 CNS): 18.3 µM; TGI (HOP-18 NSCLC): > 100 µM; TGI (XF 498 CNS): 4.01 µM |
| COc1c(CC=C(C)C)c(O)c(C(CC(C)C)c2c(O)c3c(c(C(C)=O)c2O)OC(C(C)(C)O)C3)c(O)c1C(C)=O (stereo not drawn) | – | 9.49 | 12.3 | 10 µM | > 12.5 | > 12.5 | – |
| O=c1ccc2nc3cc(Br)ccc3sc-2c1 | > 100 | – | – | – | > 100 | – | TGI (DMS 114 small cell lung): > 100 µM; TGI (DLD-1 colon): > 100 µM; TGI (DMS 273 small cell lung): > 100 µM; TGI (KM20L2 colon): > 100 µM; TGI (SNB-78 CNS): > 100 µM; TGI (M19-MEL melanoma): > 100 µM; TGI (LXFL 529 NSCLC): > 100 µM |
| O=c1[nH]c(Nc2ccc(Cl)c(C(F)(F)F)c2)nc2nc[nH]c12 | > 100 | > 100 | 60.9 | > 100 µM | – | 74.8 | – |
| c1ccc(-c2nnn3c2NC2=C(CCCC2)C3c2ccccc2)cc1 (stereo not drawn) | 52.8 | – | – | 34.3 µM | – | 36.4 | – |
| CC1=CC(=O)CC(C)(C)C1/C=C/C(C)=C/C=C/C(C)=C/C=C/C=C(C)/C=C/C=C(C)/C=C/C1C(C)=CC(=O)CC1(C)C (stereo not drawn) | > 100 | – | > 100 | > 100 µM | > 100 | > 100 | – |
